Data reported in US12605330B2, “Screening method for offensive odor-suppressing material” (Takasago International Corporation, priority 2019, dated 2026).

Legend:
[1] = biological target: T1, human olfactory receptor OR4Q3 (Homo sapiens, UniProt Q8NH05); assay: Luciferase reporter gene assay, response of olfactory receptor OR4Q3 to odorous substance; assay type: cell-based; conditions: HEK293T cells expressing OR4Q3, various concentrations, 3 hours stimulation; FIGS. 2, 4, 5, 6
T1 construct: N-terminal 20 amino acid residues of bovine rhodopsin (Rho tag); expressed in transfected cells; host or cells: HEK293T cells, pME18S expression vector, co-transfected with RTP1S vector and luciferase reporters
T1 sequence (Q8NH05 1-313): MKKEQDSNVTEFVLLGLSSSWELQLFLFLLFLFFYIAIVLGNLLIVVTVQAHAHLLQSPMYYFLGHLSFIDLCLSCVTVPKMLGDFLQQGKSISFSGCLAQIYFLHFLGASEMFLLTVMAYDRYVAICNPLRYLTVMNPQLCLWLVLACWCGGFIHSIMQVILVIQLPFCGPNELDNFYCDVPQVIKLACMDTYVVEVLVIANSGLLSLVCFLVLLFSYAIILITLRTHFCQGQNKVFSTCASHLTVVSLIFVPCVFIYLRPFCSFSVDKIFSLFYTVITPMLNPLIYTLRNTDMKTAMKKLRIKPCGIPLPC
Experimental: (§1) Human olfactory receptor genes were obtained by PCR cloning with Human Genomic DNA: Female (Promega) on the basis of their sequence information registered in GenBank. Into pME18S vectors, the N-terminal 20 amino acid residues of bovine rhodopsin were integrated and the resulting human olfactory receptor genes were integrated respectively downstream thereof to obtain human olfactory receptor gene expression vectors.
(§2) Each human olfactory receptor gene expression vector (0.05 μg), RTP1S vector (0.01 μg), firefly luciferase vector pGL4.29 containing a cAMP response element promoter (Promega, 0.01 μg) and Renilla luciferase vector pGL4.74 containing a thymidine kinase promoter (Promega, 0.005 μg) were dissolved in 10 μL of Opti-MEMI (gibco) to give a gene solution (for one well). HEK293T cells were seeded in 100 μL volumes into 96-well plates (Biocoat, Corning) at a cell density reaching confluence after 24 hours, and the gene solutions were added to the respective wells to cause gene transfer into the cells by lipofection techniques in accordance with the usage of Lipofectamine 3000, followed by culture at 37° C. under a 5% carbon dioxide atmosphere for 24 hours.
(§3) After removal of the culture solutions, an odorous substance serving as an analyte, which had been prepared at a given concentration with CD293 (gibco) medium (supplemented with […] L-glutamine), was added in 50 μL volumes to stimulate the cells for 3 hours, followed by luciferase activity measurement in accordance with the usage of a Dual-Luciferase Reporter Assay System (Promega). The response intensity of each olfactory receptor polypeptide was expressed as a fold increase value, which was determined by dividing the luciferase activity generated upon stimulation with the odorous substance by the luciferase activity generated in a test system not containing the odorous substance.
(§4) The cells engineered to express human olfactory receptors OR2C1 and OR4Q3 were used to measure the response of these receptors to various concentrations of 1-octen-3-one by the luciferase reporter gene assay.

[2] = system: cells not engineered to express the olfactory receptors; assay: Mock test, luciferase reporter gene assay; assay type: cell-based, human
Experimental: as §2, §3, §4

[3] = biological target: T2, human olfactory receptor OR2C1 (Homo sapiens, UniProt O95371); assay: Luciferase reporter gene assay, response of olfactory receptor OR2C1 to odorous substance; assay type: cell-based; conditions: HEK293T cells expressing OR2C1, various concentrations, 3 hours stimulation; FIGS. 1 and 3
T2 construct: N-terminal 20 amino acid residues of bovine rhodopsin (Rho tag); expressed in transfected cells; host or cells: HEK293T cells, pME18S expression vector, co-transfected with RTP1S vector and luciferase reporters
T2 sequence (O95371 1-312): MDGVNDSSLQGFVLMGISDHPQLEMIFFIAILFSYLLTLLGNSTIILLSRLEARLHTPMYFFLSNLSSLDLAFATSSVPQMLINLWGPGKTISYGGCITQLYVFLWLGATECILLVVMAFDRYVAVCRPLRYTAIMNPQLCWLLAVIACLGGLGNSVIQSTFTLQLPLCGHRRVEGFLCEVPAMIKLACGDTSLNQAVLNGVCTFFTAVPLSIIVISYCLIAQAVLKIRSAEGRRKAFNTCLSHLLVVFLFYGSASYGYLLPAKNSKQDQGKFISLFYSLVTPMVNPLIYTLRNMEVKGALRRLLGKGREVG
Description: as §1, with “vectors. […]” for “vectors.”
as §3, with “substance. […]” for “substance.”

OR2C1 = biological target: T3, OR2C1 (Homo sapiens, UniProt O95371); assay: Suppressive effect of offensive odor-suppressing materials on the response of OR2C1 (luciferase reporter gene assay); assay type: cell-based; conditions: mixed at various concentrations with 30 μM 1-octen-3-one; FIGS. 7 and 8
T3 construct: N-terminal 20 amino acid residues of bovine rhodopsin (Rho tag); expressed in transfected cells; host or cells: HEK293T cells, pME18S expression vector, co-transfected with RTP1S vector and luciferase reporters
T3 sequence (O95371 1-312): T2 sequence (O95371 1-312)
Description: as §1, with “vectors. […]” for “vectors.”
as §3, with “substance. […]” for “substance.”

[4] = background art; cited from earlier work
olfactory receptor OR2W1 = biological target: T4, olfactory receptor OR2W1 (Homo sapiens, UniProt Q9Y3N9); conditions: background art; cited from earlier work
T4 sequence (Q9Y3N9 1-320): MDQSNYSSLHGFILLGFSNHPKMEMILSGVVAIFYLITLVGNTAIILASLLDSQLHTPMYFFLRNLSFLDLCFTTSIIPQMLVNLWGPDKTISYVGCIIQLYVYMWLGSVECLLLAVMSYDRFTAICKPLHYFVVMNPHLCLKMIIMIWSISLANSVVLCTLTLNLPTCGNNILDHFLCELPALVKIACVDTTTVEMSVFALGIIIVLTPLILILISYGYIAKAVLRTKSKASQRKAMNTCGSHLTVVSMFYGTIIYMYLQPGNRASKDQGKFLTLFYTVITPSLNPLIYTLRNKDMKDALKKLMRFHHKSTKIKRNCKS

SMILES | response of OR4Q3 to the odorous substance (fold increase value) [1] | response in Mock test [2] | also measured
C=CC(O)CC=CCC (stereo not drawn) [1,5-octadien-3-ol] | respond to 1,5-octadien-3-ol in a concentration-dependent manner | no response was observed | 
C=CC(=O)CC=CCC [1,5-octadien-3-one] | respond to 1,5-octadien-3-one in a concentration-dependent manner | no response was observed | response of OR2C1 to the odorous substance (fold increase value) [3]: respond to 1,5-octadien-3-one in a concentration-dependent manner
CCCC(O)CCC1C(C)CCCC1(C)C (stereo not drawn) [1-(2,2,6-trimethylcyclohexyl)hexan-3-ol] |  |  | suppressive effect on the response of OR2C1 to 1-octen-3-one (ratio of fold increase value, without material set to 100) (OR2C1): reducing the response of OR2C1 to 1-octen-3-one in a concentration-dependent manner
C=CC(O)CCCCC (stereo not drawn) [1-octen-3-ol] | respond to 1-octen-3-ol in a concentration-dependent manner | no response was observed | 
C=CC(=O)CCCCC [1-octen-3-one] | respond to 1-octen-3-one in a concentration-dependent manner | no response was observed | response of OR2C1 to the odorous substance (fold increase value) [3]: respond to 1-octen-3-one in a concentration-dependent manner
CC(=CCC1CC=C(C)C1(C)C)CO (stereo not drawn) [2-methyl-4-(2,2,3-trimethylcyclopent-3-enyl)but-2-en-1-ol] |  |  | suppressive effect on the response of OR2C1 to 1-octen-3-one (ratio of fold increase value, without material set to 100) (OR2C1): reducing the response of OR2C1 to 1-octen-3-one in a concentration-dependent manner
CC(C)c1cccc(C(C)CC=O)c1 (stereo not drawn) [florhydral] |  |  | suppression of offensive odor induced by hexanoic acid in sensory testing [4]: suppress an offensive odor induced by hexanoic acid; inhibition of the activity of OR2W1 (olfactory receptor OR2W1): inhibiting the activity of this OR2W1
CCCCCC(=O)O [hexanoic acid] |  |  | response of OR2W1 to the odorous substance (olfactory receptor OR2W1): responds to hexanoic acid
